Experimental data taken from US11932636B2, “RAD51 inhibitors” (Cyteir Therapeutics, Inc., priority 2019, dated 2024).

tested on: Daudi cells (AID positive); assay: Compound primary screening: cell death in AID positive Daudi cells (Cell-Titer Glo, Day 7); format: cell-based; conditions: Homo sapiens, 168 h; Daudi cells, AID positive; cell death on Day 7, Cell-Titer Glo; read-out: Cellular activity in AID + (Daudi)
Method: Example 149. Compound Primary Screening
AID expressing cells are dependent upon RAD51 for survival; inhibiting RAD51 in AID positive cells results in a cytotoxic effect.
A 96 well u-bottom plate was prepared by writing the experiment number, plate number, date and initials in the top right corner of the plate lid. With a sterile 300 ml reservoir, and 25 ml serological pipette, evaporation buffer media was pipetted into reservoir in 25 ml increments. Using the liquid handler, 150 ul of evaporation buffer media was pipetted from reservoir into rows A and H, and Columns 1 and 12 of the 96 well u-bottom plate. Cell cultures were counted to obtain the density of cells per ml, and the culture viability. The cell density information was used to obtain 1,000,000 cells from culture using a 5 mL serological pipette into an epi tube. The cell density information from the culture was used to calculate the number of cells and volume of media needed for the assay to seed 1250 cells in 130 ul of media per available culture well in the 96 well u-bottom plate. Rows B through F were used for cells (50 wells in total), with row G left for an empty media control. The calculation was overestimated by 10 mL to account for the dead volume in the 300 ml reservoir. Once the media volume was calculated, the appropriate volume of media was pipetted in 25 mL increments into the 250 mL bottle using a 25 mL serological pipette. The 250 ml bottle was capped tightly, and placed into a 37° C. water bath for 2 minutes. While the culture media was warming, 10 mL of fresh media was pipetted from the 500 mL culture media bottle into a sterile 25 mL reservoir. Using the Eppendorf multichannel pipette, 130 ul of media was pipetted from the 25 mL reservoir into row G of the 96 well u-bottom plate. Once the 250 mL bottle of media was warmed, the volume of culture needed was pipetted into the bottle, and mixed gently with a 25 mL serological pipette as to not create bubbles, and then the contents of the bottle were pipetted into a new 300 mL reservoir. Using the liquid handler, 130 ul of culture was pipetted from the 300 mL reservoir into rows B through F of the 96 well u-bottom plate. Once the culture was added, the plate was placed into a 37° C. incubator until the compound master plate was prepared for use.
Two 96 well u-bottom plates were prepared by writing the master plate name in the upper right corner of the plate lid. Labeling one DMSO master and the other Media Master. The compounds of interest were obtained from the laboratory freezer, and placed into a 25 well storage box with a lid, and set the box aside. The compounds were vortexed after thawing but before use. Using an automatic multichannel pipette, 20 ul of 100% DMSO was pipetted into wells B3-B11 through G3-G11 of the DMSO master plate. For each compound on the master plate, 50 ul of the compound were pipetted in the appropriate well of row 2 (reference plate map to determine appropriate well). A serial dilution was prepared beginning by aspirating 20 ul from row 2 and mixing with row 3, repeating until row 11 was reached. Using the liquid handler, 194 ul of Daudi media was dispensed into wells B2-B11 through G2-G11 of the Media master plate. Using the liquid handler, 6 ul from the DMSO master plate was aspirated and dispensed into the media master plate, mixing 100 ul twice.
Compounds from master plate were then added to the culture plate. The culture plates were removed from the incubator, and set inside the biosafety cabinet. Using a liquid handler, 20 ul from wells B2 to B11 through G2 to G11 of master plate were aspirated, and dispensed into wells B2 to B11 through G2 to G11 of culture plate. This set was continued with each culture plate. Once the culture plates acquired their 20 ul of compound dilutions, they were placed back into the incubator, until their reads on Day 7 of experiment.
Cell death was measured on Day 7 of the experiment using Cell-Titer Glo and a Promega Plate reader.

First: CCNS(=O)(=O)c1cc(Nc2ccc(=O)n(C)n2)ccc1-c1cnc([C@H]2CC[C@H](NC(=O)OC(C)C)CC2)s1 [Compound 172, isopropyl trans-N-[4-[5-[2-(ethylsulfamoyl)-4-[(1-methyl-6-oxo-pyridazin-3-yl)amino]phenyl]thiazol-2-yl]cyclohexyl]carbamate]
Second: CCNS(=O)(=O)c1cc(Nc2ccc(Cl)nn2)ccc1-c1cnc([C@H]2CC[C@H](NC(=O)OC(C)C)CC2)s1 [Compound 159, isopropyl trans-N-[4-[5-[4-[(6-chloropyridazin-3-yl)amino]-2-(ethylsulfamoyl)phenyl]thiazol-2-yl]cyclohexyl]carbamate]
The EC50 of the first is higher: 100 to 1000 nM for the first, under 100 nM for the second. The second is the more potent here.

`CCNS(=O)(=O)c1cc(Nc2cn[nH]n2)ccc1-c1cnc([C@H]2CC[C@H](NC(=O)OC(C)C)CC2)s1` [Compound 149, isopropyl trans-N-[4-[5-[2-(ethylsulfamoyl)-4-(2H-triazol-4-ylamino)phenyl]thiazol-2-yl]cyclohexyl]carbamate] and `CCNS(=O)(=O)c1cc(Nc2cccnc2)ccc1-c1cnc([C@H]2CC[C@H](NC(=O)OC(C)C)CC2)s1` [Compound 128, isopropyl trans-N-[4-[5-[2-(ethylsulfamoyl)-4-[(pyridin-3-yl)amino]phenyl]thiazol-2-yl]cyclohexyl]carbamate] cannot be ordered by EC50: under 100 nM for the first, under 100 nM for the second.

Compared with `CC(C)COCc1ccc(-c2cnc([C@H]3CC[C@H](NC(=O)OC(C)C)CC3)s2)c(S(=O)(=O)NC(C)(C)C)c1` [Compound 33, isopropyl (trans-4-(5-(2-(N-(tert-butyl)sulfamoyl)-4-(isobutoxymethyl)phenyl)thiazol-2-yl)cyclohexyl)carbamate], `CC(C)CCOc1ccc(-c2cnc([C@H]3CC[C@H](NC(=O)OC(C)C)CC3)s2)c(S(=O)(=O)NC(C)(C)C)c1` [Compound 101, isopropyl trans-N-[4-[5-[2-(tert-butylsulfamoyl)-4-isopentyloxy-phenyl]thiazol-2-yl]cyclohexyl]carbamate] is higher in EC50: 100 to 1000 nM for the first, 1000 to 10000 nM for the second.

`CC(C)OC(=O)N[C@H]1CC[C@H](c2ncc(-c3ccc(OCCN(C)C(=O)OC(C)(C)C)cc3S(=O)(=O)NC(C)(C)C)s2)CC1` [Compound 29, tert-butyl (2-(3-(N-(tert-butyl)sulfamoyl)-4-(2-(trans-4-((isopropoxycarbonyl)amino)cyclohexyl)thiazol-5-yl)phenoxy)ethyl)(methyl)carbamate] and `CC(C)OC(=O)N[C@H]1CC[C@H](c2ncc(-c3ccc(OC(C)C)cc3S(=O)(=O)NC(C)(C)C)s2)CC1` [Compound 27, isopropyl (trans-4-(5-(2-(N-(tert-butyl)sulfamoyl)-4-isopropoxyphenyl)thiazol-2-yl)cyclohexyl)carbamate] fall in the same range of EC50: 1000 to 10000 nM for the first, 1000 to 10000 nM for the second.

First: CCNS(=O)(=O)c1cc(OCCC(C)C)ccc1-c1cnc([C@H]2CC[C@H](NC(=O)OC(C)C)CC2)s1 [Compound 99, isopropyl trans-N-[4-[5-[2-(ethylsulfamoyl)-4-isopentyloxy-phenyl]thiazol-2-yl]cyclohexyl]carbamate]
Second: CCNS(=O)(=O)c1cc(CO)ccc1-c1cnc([C@H]2CC[C@H](NC(=O)OC(C)C)CC2)s1 [Compound 72, isopropyl trans-N-[4-[5-[2-(ethylsulfamoyl)-4-(hydroxymethyl)phenyl]thiazol-2-yl]cyclohexyl]carbamate]
The EC50 of the first is lower: 100 to 1000 nM for the first, 1000 to 10000 nM for the second.

First: CCNS(=O)(=O)c1cc(CC(=O)N2CCOCC2)ccc1-c1cnc([C@H]2CC[C@H](NC(=O)OC(C)C)CC2)s1 [Compound 84, isopropyl trans-N-[4-[5-[4-[2-oxo-2-(morpholin-4-yl)ethyl]-2-(ethyl-sulfamoyl)phenyl]thiazol-2-yl]cyclohexyl]carbamate]
Second: CCNS(=O)(=O)c1cc(Cc2ncc[nH]2)ccc1-c1cnc([C@H]2CC[C@H](NC(=O)OC(C)C)CC2)s1 [Compound 78, isopropyl trans-N-[4-[5-[2-(ethylsulfamoyl)-4-(1H-imidazol-2-ylmethyl)phenyl]thiazol-2-yl]cyclohexyl]carbamate]
The EC50 of the first is lower: 100 to 1000 nM for the first, 1000 to 10000 nM for the second. The first is the more potent here.

First: CC(C)OC(=O)N[C@H]1CC[C@H](c2ncc(-c3ccc(-c4cnc(N)nc4)cc3S(=O)(=O)NC(C)(C)C)s2)CC1 [Compound 10, isopropyl (trans-4-(5-(4-(2-aminopyrimidin-5-yl)-2-(N-(tert-butyl)sulfamoyl)phenyl)thiazol-2-yl)cyclohexyl)carbamate]
Second: CC(C)OC(=O)N[C@H]1CC[C@H](c2ncc(-c3ccc(CN)cc3S(=O)(=O)NC(C)(C)C)s2)CC1 [Compound 1, isopropyl (trans-4-(5-(4-(aminomethyl)-2-(N-(tert-butyl)sulfamoyl)phenyl)thiazol-2-yl)cyclohexyl)carbamate]
The EC50 of the first is lower: 100 to 1000 nM for the first, over 10000 nM for the second.

First: CC(C)OC(=O)N[C@H]1CC[C@H](c2ncc(-c3ccc(Nc4ncc[nH]4)cc3S(=O)(=O)N(C)C)s2)CC1 [Compound 91, isopropyl trans-N-[4-[5-[2-(dimethylsulfamoyl)-4-(1H-imidazol-2-ylamino)phenyl]thiazol-2-yl]cyclohexyl]carbamate]
Second: CCNS(=O)(=O)c1cc(Nc2ccnn2C(C)C)ccc1-c1cnc([C@H]2CC[C@H](NC(=O)OC(C)C)CC2)s1 [Compound 129, isopropyl trans-N-[4-[5-[2-(ethylsulfamoyl)-4-[(1-isopropyl-1H-pyrazol-5-yl)amino]phenyl]thiazol-2-yl]cyclohexyl]carbamate]
The EC50 of the first is higher: 100 to 1000 nM for the first, under 100 nM for the second. The second is the more potent here.

Compared with `CCNS(=O)(=O)c1cc(C(=O)NC(C)C)ccc1-c1cnc([C@H]2CC[C@H](NC(=O)OC3COC3)CC2)s1` [Compound 68, oxetan-3-yl (trans-4-(5-(2-(N-ethylsulfamoyl)-4-(isopropylcarbamoyl)phenyl)thiazol-2-yl)cyclohexyl)carbamate], `CC(C)(C)NS(=O)(=O)c1cc(CC(=O)NCc2ccccc2)ccc1-c1cnc([C@H]2CC[C@H](NC(=O)OC3COC3)CC2)s1` [Compound 98, oxetan-3-yl trans-N-[4-[5-[4-[2-(benzylamino)-2-oxo-ethyl]-2-(tert-butylsulfamoyl)phenyl]thiazol-2-yl]cyclohexyl]carbamate] is lower in EC50: 100 to 1000 nM for the first, under 100 nM for the second.

First: CC(C)OC(=O)N[C@H]1CC[C@H](c2ncc(-c3ccc(-c4cnn5ccccc45)cc3S(=O)(=O)NC(C)(C)C)s2)CC1 [Compound 3, isopropyl (trans-4-(5-(2-(N-(tert-butyl)sulfamoyl)-4-(pyrazolo[1,5-a]pyridin-3-yl)phenyl)thiazol-2-yl)cyclohexyl)carbamate]
Second: CC(C)OC(=O)N[C@H]1CC[C@H](c2ncc(-c3ccccc3S(=O)(=O)NC(C)(C)C)s2)CC1 [Compound 46, isopropyl (trans-4-(5-(2-(N-(tert-butyl)sulfamoyl)phenyl)thiazol-2-yl)cyclohexyl)carbamate]
The EC50 of the first is lower: 100 to 1000 nM for the first, 1000 to 10000 nM for the second. The first is the more potent here.

First: CCNS(=O)(=O)c1cc(Nc2ccc(C(C)C)cn2)ccc1-c1cnc([C@H]2CC[C@H](NC(=O)OC(C)C)CC2)s1 [Compound 113, isopropyl trans-N-[4-[5-[2-(ethylsulfamoyl)-4-[(5-isopropyl-2-pyridyl)amino]phenyl]thiazol-2-yl]cyclohexyl]carbamate]
Second: CCNS(=O)(=O)c1cc(Nc2ccn[nH]2)ccc1-c1cnc([C@H]2CC[C@H](NC(=O)OC)CC2)s1 [Compound 167, methyl trans-N-[4-[5-[2-(ethylsulfamoyl)-4-[(1H-pyrazol-5-yl)amino]phenyl]thiazol-2-yl]cyclohexyl]carbamate]
The EC50 of the first is lower: under 100 nM for the first, 100 to 1000 nM for the second.

same assay, conditions: Homo sapiens, Daudi, 168 h, read-out: Cellular activity in AID + (Daudi)

`CCNS(=O)(=O)c1cc(Nc2ncc[nH]2)ccc1-c1cnc([C@H]2CC[C@H](NC(=O)OC3CC3)CC2)s1` [Compound 109, cyclopropyl trans-N-[4-[5-[2-(ethylsulfamoyl)-4-(1H-imidazol-2-ylamino)phenyl]thiazol-2-yl]cyclohexyl]carbamate] was tested, and the EC50 was 100 to 1000 nM.
